“Also recorded” adds a separate entry of the source. *1 amine or outer side, *2 acyl side, *3 side chain or, on linkers, in order; H or OH if unused. Where a SMILES comes first, the peptide text is derived from it. Bridges are numbered along the chain shown (N, C = ends). [ ]: non-standard residue; d: D form. The star is where a group is joined. NODAGA = O=C(O)CN1CCN(CC(=O)O)CCN(C(CCC(=O)*)C(=O)O)CC1; Tyr(3-Cl) = N[C@@H](Cc1ccc(O)c(Cl)c1)C(=O)O; X1 = O=C([C@@H]1CC(O)CN1[*:1])[*:2]
Target: T1, fibrin in human carotid endarterectomy specimens (Homo sapiens, UniProt P02671+P02675+P02679)
T1 construct: discarded surgical specimens from asymptomatic patients who underwent elective carotid endarterectomy; from tissue; host or cells: human carotid endarterectomy specimens (cryosections or tissue pieces)
T1 sequence (P02671 36-644 isoform P02671-2 limits assumed): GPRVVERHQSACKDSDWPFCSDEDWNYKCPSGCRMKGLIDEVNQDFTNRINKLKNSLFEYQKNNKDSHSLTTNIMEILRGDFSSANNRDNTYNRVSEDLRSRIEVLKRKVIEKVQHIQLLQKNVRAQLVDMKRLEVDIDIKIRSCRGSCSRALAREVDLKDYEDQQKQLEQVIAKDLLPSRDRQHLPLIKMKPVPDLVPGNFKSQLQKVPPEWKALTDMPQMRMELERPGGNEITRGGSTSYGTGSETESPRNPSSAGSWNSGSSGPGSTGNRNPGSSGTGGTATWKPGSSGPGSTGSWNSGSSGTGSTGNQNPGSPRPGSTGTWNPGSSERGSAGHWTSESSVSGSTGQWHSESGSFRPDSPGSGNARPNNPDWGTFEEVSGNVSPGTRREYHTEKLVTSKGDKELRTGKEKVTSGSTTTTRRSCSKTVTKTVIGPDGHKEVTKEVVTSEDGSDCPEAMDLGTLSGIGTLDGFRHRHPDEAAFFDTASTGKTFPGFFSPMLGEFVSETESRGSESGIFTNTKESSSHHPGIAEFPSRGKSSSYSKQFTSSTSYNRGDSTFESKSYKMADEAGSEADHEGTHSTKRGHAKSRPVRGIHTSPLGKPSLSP
T1 sequence (P02675 45-491 limits assumed): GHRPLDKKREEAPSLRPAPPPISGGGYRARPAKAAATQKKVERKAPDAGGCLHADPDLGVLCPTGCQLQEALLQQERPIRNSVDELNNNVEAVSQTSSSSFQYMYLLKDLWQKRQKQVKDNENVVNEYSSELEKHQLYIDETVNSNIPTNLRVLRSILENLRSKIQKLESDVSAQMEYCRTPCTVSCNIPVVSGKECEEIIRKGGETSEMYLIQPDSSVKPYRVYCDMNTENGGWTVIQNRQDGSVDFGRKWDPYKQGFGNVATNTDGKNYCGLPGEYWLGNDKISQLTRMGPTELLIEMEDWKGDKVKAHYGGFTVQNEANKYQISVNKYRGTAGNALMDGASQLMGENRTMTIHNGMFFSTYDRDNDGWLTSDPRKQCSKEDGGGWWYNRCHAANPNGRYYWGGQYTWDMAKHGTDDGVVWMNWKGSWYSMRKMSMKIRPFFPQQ
T1 sequence (P02679 27-437 isoform P02679-2 limits assumed): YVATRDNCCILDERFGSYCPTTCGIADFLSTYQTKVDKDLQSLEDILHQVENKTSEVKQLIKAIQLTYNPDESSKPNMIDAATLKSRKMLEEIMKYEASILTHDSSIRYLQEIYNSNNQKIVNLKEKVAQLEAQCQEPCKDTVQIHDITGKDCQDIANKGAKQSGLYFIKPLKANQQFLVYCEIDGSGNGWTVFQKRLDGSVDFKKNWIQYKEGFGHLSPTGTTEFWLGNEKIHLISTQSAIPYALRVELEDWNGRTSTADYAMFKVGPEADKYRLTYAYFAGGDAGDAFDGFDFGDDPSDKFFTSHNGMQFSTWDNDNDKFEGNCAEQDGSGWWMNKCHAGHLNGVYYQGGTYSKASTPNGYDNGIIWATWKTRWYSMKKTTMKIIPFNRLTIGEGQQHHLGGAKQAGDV
Assay: Ex vivo autoradiography of human carotid endarterectomy specimens
Details: compared to non-binding probe ^68Ga-22; 12 patients; P<0.05
Protocol: Twelve discarded surgical specimens from asymptomatic patients who underwent elective carotid endarterectomy at Massachusetts General Hospital were obtained and used in ex vivo studies described herein. Samples were processed for histology, autoradiography, and probe binding assay as described above (Examples 6 and 13).
Discarded surgical specimens were embedded in optimal cutting temperature compound, snap-frozen, and stored at −80° C. before further analysis. Alternating consecutive cryosections were processed for histology and autoradiography; triplicate tissue samples with 50 μm gap in between were used for these experiments. The remaining tissue samples were processed for functional probe assay.
For autoradiography, three 30 μm-thick sections were incubated with ^68Ga-20 or non-fibrin binding control probe ^68Ga-22 for 45 minutes on a lab shaker at room temperature. Autoradiography was performed after three washes of PBS. The exposure time was 2 minutes.

Structure (SMILES): CC[C@H](C)[C@H](NC(=O)[C@H](Cc1cnc[nH]1)NC(=O)[C@@H]1CSSC[C@H](NC(=O)[C@@H](CCC(=O)O)NC(=O)[C@H](Cc2ccc(O)cc2)NC(=O)CCC(C(=O)O)N2CCN(CC(=O)O)CCN(CC(=O)O)CC2)C(=O)N2CC(O)C[C@H]2C(=O)N[C@@H](Cc2ccc(O)c(Cl)c2)C(=O)NCC(=O)N[C@@H](CC(C)C)C(=O)N1)C(=O)N[C@H](CCC(N)=O)C(N)=O (stereo partly shown) [Compound ^68Ga-20, metal not drawn] ({NODAGA}-Y[dE]C[X1][Tyr(3-Cl)]GLCHI[dQ]-NH2; disulfide 3-8)
- uptake, autoradiography: variable but significantly increased; also recorded: significantly higher uptake

Reference: US20240115744A1, “FIBRIN-BINDING COMPOUNDS FOR IMAGING AND TREATMENT” (Collagen Medical, LLC, priority 2019, published 2024)
